Activity calls are given as the source filed them. The rule behind the calls is not given here.
Test system: CCRIS mutagenicity, Ames/micronucleus/aberration tests
Test: CCRIS mutagenicity studies
[1] = Test System: AMES SALMONELLA TYPHIMURIUM, Strain/Indicator: TA98, Metabolic Activation: NONE, Method: PREINCUBATION
[2] = Test System: AMES SALMONELLA TYPHIMURIUM, Strain/Indicator: TA100, Metabolic Activation: NONE, Method: PREINCUBATION

Measured: mutagenic call

CC(=O)OC(C)=O
inactive: Test System: AMES SALMONELLA TYPHIMURIUM, Strain/Indicator: TA98, Metabolic Activation: HAMSTER, LIVER, S-9, AROCLOR 1254, Method: STANDARD PLATE inactive; negative | [1] inactive; negative | Test System: AMES SALMONELLA TYPHIMURIUM, Strain/Indicator: TA98, Metabolic Activation: NONE, Method: STANDARD PLATE inactive; negative | Test System: AMES SALMONELLA TYPHIMURIUM, Strain/Indicator: TA98, Metabolic Activation: RAT, LIVER, S-9, AROCLOR 1254, Method: STANDARD PLATE inactive; negative | Test System: AMES SALMONELLA TYPHIMURIUM, Strain/Indicator: TA98, Metabolic Activation: RAT, LIVER, S-9, SODIUM PHENOBARBITAL AND 5,6-BENZOFLAVONE, Method: PREINCUBATION inactive; negative | Test System: AMES SALMONELLA TYPHIMURIUM, Strain/Indicator: TA100, Metabolic Activation: HAMSTER, LIVER, S-9, AROCLOR 1254, Method: STANDARD PLATE inactive; negative | [2] inactive; negative | Test System: AMES SALMONELLA TYPHIMURIUM, Strain/Indicator: TA100, Metabolic Activation: NONE, Method: STANDARD PLATE inactive; negative | Test System: AMES SALMONELLA TYPHIMURIUM, Strain/Indicator: TA100, Metabolic Activation: RAT, LIVER, S-9, AROCLOR 1254, Method: STANDARD PLATE inactive; negative | Test System: AMES SALMONELLA TYPHIMURIUM, Strain/Indicator: TA100, Metabolic Activation: RAT, LIVER, S-9, SODIUM PHENOBARBITAL AND 5,6-BENZOFLAVONE, Method: PREINCUBATION inactive; negative | Test System: AMES SALMONELLA TYPHIMURIUM, Strain/Indicator: TA102, Metabolic Activation: NONE, Method: PREINCUBATION inactive; negative | Test System: AMES SALMONELLA TYPHIMURIUM, Strain/Indicator: TA102, Metabolic Activation: RAT, LIVER, S-9, SODIUM PHENOBARBITAL AND 5,6-BENZOFLAVONE, Method: PREINCUBATION inactive; negative | Test System: AMES SALMONELLA TYPHIMURIUM, Strain/Indicator: TA104, Metabolic Activation: NONE, Method: PREINCUBATION inactive; negative | Test System: AMES SALMONELLA TYPHIMURIUM, Strain/Indicator: TA104, Metabolic Activation: RAT, LIVER, S-9, SODIUM PHENOBARBITAL AND 5,6-BENZOFLAVONE, Method: PREINCUBATION inactive; negative | Test System: AMES SALMONELLA TYPHIMURIUM, Strain/Indicator: TA1535, Metabolic Activation: HAMSTER, LIVER, S-9, AROCLOR 1254, Method: STANDARD PLATE inactive; negative | Test System: AMES SALMONELLA TYPHIMURIUM, Strain/Indicator: TA1535, Metabolic Activation: NONE, Method: PREINCUBATION inactive; negative | Test System: AMES SALMONELLA TYPHIMURIUM, Strain/Indicator: TA1535, Metabolic Activation: NONE, Method: STANDARD PLATE inactive; negative | Test System: AMES SALMONELLA TYPHIMURIUM, Strain/Indicator: TA1535, Metabolic Activation: RAT, LIVER, S-9, AROCLOR 1254, Method: STANDARD PLATE inactive; negative | Test System: AMES SALMONELLA TYPHIMURIUM, Strain/Indicator: TA1535, Metabolic Activation: RAT, LIVER, S-9, SODIUM PHENOBARBITAL AND 5,6-BENZOFLAVONE, Method: PREINCUBATION inactive; negative | Test System: AMES SALMONELLA TYPHIMURIUM, Strain/Indicator: TA1537, Metabolic Activation: HAMSTER, LIVER, S-9, AROCLOR 1254, Method: STANDARD PLATE inactive; negative | Test System: AMES SALMONELLA TYPHIMURIUM, Strain/Indicator: TA1537, Metabolic Activation: NONE, Method: PREINCUBATION inactive; negative | Test System: AMES SALMONELLA TYPHIMURIUM, Strain/Indicator: TA1537, Metabolic Activation: NONE, Method: STANDARD PLATE inactive; negative | Test System: AMES SALMONELLA TYPHIMURIUM, Strain/Indicator: TA1537, Metabolic Activation: RAT, LIVER, S-9, AROCLOR 1254, Method: STANDARD PLATE inactive; negative | Test System: AMES SALMONELLA TYPHIMURIUM, Strain/Indicator: TA1537, Metabolic Activation: RAT, LIVER, S-9, SODIUM PHENOBARBITAL AND 5,6-BENZOFLAVONE, Method: PREINCUBATION inactive; negative | Test System: AMES SALMONELLA TYPHIMURIUM, Strain/Indicator: TA1538, Metabolic Activation: HAMSTER, LIVER, S-9, AROCLOR 1254, Method: STANDARD PLATE inactive; negative | Test System: AMES SALMONELLA TYPHIMURIUM, Strain/Indicator: TA1538, Metabolic Activation: NONE, Method: STANDARD PLATE inactive; negative | Test System: AMES SALMONELLA TYPHIMURIUM, Strain/Indicator: TA1538, Metabolic Activation: RAT, LIVER, S-9, AROCLOR 1254, Method: STANDARD PLATE inactive; negative | Test System: E. COLI, Strain/Indicator: WP2UVRA/PKM101, Metabolic Activation: NONE, Method: PREINCUBATION inactive; negative | Test System: E. COLI, Strain/Indicator: WP2UVRA/PKM101, Metabolic Activation: RAT, LIVER, S-9, SODIUM PHENOBARBITAL AND 5,6-BENZOFLAVONE, Method: PREINCUBATION inactive; negative | Test System: E. COLI, Strain/Indicator: WP2UVRA, Metabolic Activation: NONE, Method: PREINCUBATION inactive; negative | Test System: E. COLI, Strain/Indicator: WP2UVRA, Metabolic Activation: RAT, LIVER, S-9, SODIUM PHENOBARBITAL AND 5,6-BENZOFLAVONE, Method: PREINCUBATION inactive; negative | Test System: MOUSE LYMPHOMA, Strain/Indicator: L5178Y (TK+/TK-), Metabolic Activation: NONE, Method: SUSPENSION/PLATE inactive; negative. reevaluation of results: inconclusive | Test System: Mouse lymphoma, Strain/Indicator: L5178Y (tk+/tk-), Metabolic Activation: Rat, Liver, S-9, Aroclor 1254, Method: Suspension/plate inactive; inconclusive (previous evaluation negative)

Nc1cc([N+](=O)[O-])ccc1CO
active: [1] active; positive | Test System: AMES SALMONELLA TYPHIMURIUM, Strain/Indicator: TA98, Metabolic Activation: RAT, LIVER, S-9, PHENOBARBITAL AND 5,6-BENZOFLAVONE, Method: PREINCUBATION active; positive | [2] active; positive | Test System: AMES SALMONELLA TYPHIMURIUM, Strain/Indicator: TA100, Metabolic Activation: RAT, LIVER, S-9, PHENOBARBITAL AND 5,6-BENZOFLAVONE, Method: PREINCUBATION active; positive

From PubChem BioAssay AID1259407 (Chemical Carcinogenesis Research Information System (CCRIS), 2018)
